From patent US9642889B2, “Macrocyclic inhibitors of Flaviviridae viruses” (Selcia Limited, priority 2012, dated 2017)
Read-outs that look alike come from different tables or passages of the source.

Experiments:
[1] = target: cyclophilin A (Homo sapiens, UniProt P62937); assay: Cyclophilin A TR-FRET competitive binding assay; conditions: competition with CsA-Cy5 for His-tagged CypA, two-hour incubation
Description: Cyclophilin A TR-FRET Competitive Binding Assay
Inhibitor potency was measured using a competitive binding assay with a time-resolved fluorescence resonance energy transfer (TR-FRET) readout. […] An IC50 value was calculated using a four-parameter logistic fit.

[2] = system: Huh-7 HCV replicon cells (1b replicon); assay: anti-HCV activity in Huh-7 cell line harboring a HCV replicon (luciferase readout); type: cell-based; conditions: for EC50: inhibition of viral replication, Huh-7 HCV replicon cells, 3 days, read-out: EC50; for inhibition at 1 µM: Huh-7, read-out: Replicon 1b % inhibition at 1 μM, 1b replicon, 1 μM compound

Sequence of cyclophilin A (P62937 whole entry, species assumed): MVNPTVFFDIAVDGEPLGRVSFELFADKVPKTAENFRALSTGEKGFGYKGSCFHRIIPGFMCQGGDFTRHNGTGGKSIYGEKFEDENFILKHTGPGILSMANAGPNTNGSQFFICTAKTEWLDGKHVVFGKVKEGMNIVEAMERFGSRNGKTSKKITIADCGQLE

SMILES	IC50 [1] [nM]	EC50 ([2]; Hepatitis C virus, Huh-7, 72 h) [nM]	inhibition at 1 µM ([2]; Hepatitis C virus) [%]	other results
CCC[C@@H]1CC=Cc2cc3cc(ccc3cn2)[C@@H](C)NC(=O)[C@@H]2CCCN(N2)C(=O)[C@H](C)NC(=O)[C@H](C(C)C)OC1=O	–	–	–	ring closure, yield of all isomers (from C=CC[C@@H](CCC)C(=O)O[C@H](C(=O)N[C@@H](C)C(=O)N1CCC[C@@H](C(=O)N[C@H](C)c2ccc3cnc(C=C)cc3c2)N1)C(C)C, rcm bond, Hoveyda-Grubbs 2nd generation, toluene, 3.02 mM, 110.0 °C, 3.5 h): 6%
CC(C)[C@@H]1OC(=O)CC=Cc2cc3cc(ccc3cn2)[C@@H](C)NC(=O)[C@@H]2CCCN(N2)C(=O)[C@H](C)NC1=O	–	–	–	ring closure, yield of all isomers (from C=CCC(=O)O[C@H](C(=O)N[C@@H](C)C(=O)N1CCC[C@@H](C(=O)N[C@H](C)c2ccc3cnc(C=C)cc3c2)N1)C(C)C, rcm bond, Hoveyda-Grubbs 2nd generation, toluene, 2.83 mM, 110.0 °C, 5.0 h): 1%
CC(C)[C@@H]1NS(=O)(=O)CC=Cc2cc3cc(ccc3cn2)[C@@H](C)OC(=O)[C@@H]2CCCN(N2)C(=O)[C@H](C)NC1=O	–	–	–	ring closure, yield of all isomers (from C=CCS(=O)(=O)N[C@H](C(=O)N[C@@H](C)C(=O)N1CCC[C@@H](C(=O)O[C@H](C)c2ccc3cnc(C=C)cc3c2)N1)C(C)C, rcm bond, Hoveyda-Grubbs 2nd Generation Catalyst, toluene, 5.0 mM, 110.0 °C, 2.0 h): 13%
CC(C)[C@@H]1OC(=O)C(C)(C)CC=Cc2cc3cc(ccc3cn2)[C@@H](C)NC(=O)[C@@H]2CCCN(N2)C(=O)[C@H](C)NC1=O	–	–	–	ring closure, yield of all isomers (from C=CCC(C)(C)C(=O)O[C@H](C(=O)N[C@@H](C)C(=O)N1CCC[C@@H](C(=O)N[C@H](C)c2ccc3cnc(C=C)cc3c2)N1)C(C)C, rcm bond, Hoveyda-Grubbs 2nd generation catalyst, toluene, 3.08 mM, 110.0 °C, 3.0 h): 15%
CC(C)[C@@H]1OC(=O)[C@H](C)C=Cc2cc3cc(ccc3cn2)[C@@H](C)NC(=O)[C@@H]2CCCN(N2)C(=O)[C@H](C)NC1=O	–	–	–	ring closure, yield of all isomers (from C=Cc1cc2cc([C@@H](C)NC(=O)[C@@H]3CCCN(C(=O)[C@H](C)NC(=O)[C@@H](OC(=O)[C@H](C)/C=C/C)C(C)C)N3)ccc2cn1, rcm bond, Hoveyda-Grubbs 2nd generation, toluene, 2.99 mM, 125.0 °C, 5.75 h): 1%
CO[C@H]1CC[C@@]2(/C=C/c3ccc4ccc(nc4c3)[C@@H](C)NC(=O)[C@@H]3CCCN(N3)C(=O)[C@H](C)NC(=O)[C@H](C(C)C)OC2=O)CC1	–	–	–	ring closure, yield of all isomers (from CO[C@H]1CC[C@](/C=C/c2ccc3ccc([C@@H](C)N)nc3c2)(C(=O)O[C@H](C(=O)N[C@@H](C)C(=O)N2CCC[C@@H](C(=O)O)N2)C(C)C)CC1, amide bond, HATU/DIPEA, DCM, 4 steps): 6.2%
CC(C)[C@@H]1NCCCC=Cc2cc3cc(ccc3cn2)[C@@H](C)OC(=O)[C@@H]2CCCN(N2)C(=O)[C@H](C)NC1=O	–	–	–	ring closure, yield of all isomers (from C=CCCCN[C@H](C(=O)N[C@@H](C)C(=O)N1CCC[C@@H](C(=O)O[C@H](C)c2ccc3cnc(C=C)cc3c2)N1)C(C)C, rcm bond, Hoveyda-Grubbs 2nd generation catalyst, toluene, 2.97 mM, 110.0 °C, 1.25 h): 56%
CC(C)[C@@H]1OC(=O)C2(/C=C/c3ccc4ccc(nc4c3)[C@@H](C)NC(=O)[C@@H]3CCCN(N3)C(=O)[C@H](C)NC1=O)CCN(S(C)(=O)=O)CC2 [Compound 85]	< 100	< 1000	98	–
C[C@@H]1NC(=O)[C@H](C2COC2)OC(=O)C(C)(C)/C=C/c2ccc3ccc(nc3c2)[C@@H](C)NC(=O)[C@@H]2CCCN(N2)C1=O [Compound 95]	< 100	< 1000	88	–
CC(C)[C@@H]1N[C@@H](C(F)(F)F)C(C)(C)/C=C/c2ccc3ccc(nc3c2)[C@@H](C)OC(=O)[C@@H]2CCCN(N2)C(=O)[C@H](C)NC1=O [Compound 32]	101 to 1000	1100 to 10000	56	–
CCC[C@@H]1CCCc2cc3cc(ccc3cn2)[C@@H](C)NC(=O)[C@@H]2CCCN(N2)C(=O)[C@H](C)NC(=O)[C@H](C(C)C)OC1=O [Compound 9]	< 100	< 1000	100	–
CC(C)[C@@H]1OC(=O)C2(/C=C/c3ccc4ccc(nc4c3)[C@@H](C)NC(=O)[C@@H]3CCCN(N3)C(=O)[C@H](C)NC1=O)CCCCO2 (mixture of isomers) [Compound 49]	< 100	< 1000	100	–
C[C@@H]1NC(=O)[C@H](C2CCCC2)OC(=O)C2(/C=C/c3ccc4ccc(nc4c3)[C@@H](C)NC(=O)[C@@H]3CCCN(N3)C1=O)COCOC2 [Compound 63]	< 100	< 1000	100	–
C[C@@H]1NC(=O)[C@H](C2CCOCC2)OC(=O)C(C)(C)/C=C/c2ccc3ccc(nc3c2)[C@@H](C)NC(=O)[C@@H]2CCCN(N2)C1=O [Compound 67]	101 to 1000	< 1000	67	–
CCC(=O)O[C@H]1CC[C@@]2(/C=C/c3ccc4ccc(nc4c3)[C@@H](C)NC(=O)[C@@H]3CCCN(N3)C(=O)[C@H](C)NC(=O)[C@H](C(C)C)OC2=O)CC1 [Compound 109]	< 100	< 1000	99	–
C[C@@H]1NC(=O)[C@H](C2CC2)OC(=O)C2(/C=C/c3ccc4ccc(nc4c3)[C@@H](C)NC(=O)[C@@H]3CCCN(N3)C1=O)COCOC2 [Compound 53]	< 100	< 1000	99	–
CC(C)[C@@H]1OC(=O)[C@@](C)(CO)CCc2ccc3ccc(nc3c2)[C@@H](C)NC(=O)[C@@H]2CCCN(N2)C(=O)[C@H](C)NC1=O [Compound 30]	< 100	< 1000	84	–

SMILES	IC50 [1] [nM]	EC50 ([2]; Hepatitis C virus, Huh-7, 72 h) [nM]	inhibition at 1 µM ([2]; Hepatitis C virus) [%]	other results
CC1NC(=O)C(C2CC2)OC(=O)C2(C=Cc3ccc4ccc(nc4c3)C(C)NC(=O)C3CCCN(N3)C1=O)CCC(O)C2 (single isomer, unassigned) [Compound 104]	< 100	–	–	Replicon 1b % inhibition at 1 μM ([2]; 1b replicon, 1 μM compound, 1 µM): 56%; EC50 [2]: < 1000 nM
CC(C)[C@@H]1OC(=O)[C@@](C)(CO)/C=C/c2ccc3ccc(nc3c2)[C@@H](C)NC(=O)[C@@H]2CCCN(N2)C(=O)[C@H](C)NC1=O [Compound 29]	< 100	< 1000	99	–
C[C@@H]1NC(=O)[C@@H](C2CC2)OC(=O)C(C)(C)/C=C/c2ccc3ccc(nc3c2)[C@@H](C)NC(=O)[C@@H]2CCCN(N2)C1=O [Compound 79]	1000 to 10000	1100 to 10000	3	–
CC(C)[C@@H]1OCCC/C=C/c2cc3cc(ccc3cn2)[C@@H](C)OC(=O)[C@@H]2CCCN(N2)C(=O)[C@H](C)NC1=O [Compound 23]	< 100	< 1000	97	–
CC(C)[C@@H]1OC(=O)[C@@](C)(COC(F)F)/C=C/c2ccc3ccc(nc3c2)[C@@H](C)NC(=O)[C@@H]2CCCN(N2)C(=O)[C@H](C)NC1=O [Compound 55]	< 100	< 1000	100	–
CC(=O)O[C@H]1CC[C@@]2(/C=C/c3ccc4ccc(nc4c3)[C@@H](C)NC(=O)[C@@H]3CCCN(N3)C(=O)[C@H](C)NC(=O)[C@H](C(C)C)OC2=O)CC1 [Compound 110]	< 100	< 1000	100	–
CC(C)[C@@H]1NCC(C)(C)/C=C/c2ccc3ccc(nc3c2)[C@@H](C)OC(=O)[C@@H]2CCCN(N2)C(=O)[C@H](C)NC1=O [Compound 25]	< 100	< 1000	98	–
C[C@@H]1NC(=O)[C@H]([C@@H](C)OC(C)(C)C)OC(=O)C(C)(C)/C=C/c2ccc3ccc(nc3c2)[C@@H](C)NC(=O)[C@@H]2CCCN(N2)C1=O [Compound 86]	101 to 1000	< 1000	93	–
CC(=O)CC[C@@H]1C/C=C/c2cc3cc(ccc3cn2)[C@@H](C)NC(=O)[C@@H]2CCCN(N2)C(=O)[C@H](C)NC(=O)[C@H](C(C)C)OC1=O (mixture of isomers) [Compound 14]	< 100	< 1000	100	–
C[C@@H]1NC(=O)[C@H](C(C)(C)C)OC(=O)C(C)(C)/C=C/c2ccc3ccc(nc3c2)[C@@H](C)NC(=O)[C@@H]2CCCN(N2)C1=O [Compound 70]	1000 to 10000	< 1000	57	–
C[C@@H]1NC(=O)[C@H](C2CCC2)OC(=O)C(C)(C)/C=C/c2ccc3ccc(nc3c2)[C@@H](C)NC(=O)[C@@H]2CCCN(N2)C1=O [Compound 52]	< 100	< 1000	100	–
CC(F)[C@@H]1OC(=O)C(C)(C)/C=C/c2ccc3ccc(nc3c2)[C@@H](C)NC(=O)[C@@H]2CCCN(N2)C(=O)[C@H](C)NC1=O (stereo partly shown) [Compound 68]	< 100	< 1000	93	–
CC(C)[C@@H]1OC(=O)C2(/C=C/c3ccc4ccc(nc4c3)[C@@H](C)NC(=O)[C@@H]3CCCN(N3)C(=O)[C@H](C)NC1=O)CCC(C)(O)CC2 (stereo partly shown) [Compound 89]	< 100	< 1000	82	–
CC(C)[C@@H]1N[C@H](C(F)(F)F)C(C)(C)/C=C/c2ccc3ccc(nc3c2)[C@@H](C)OC(=O)[C@@H]2CCCN(N2)C(=O)[C@H](C)NC1=O [Compound 31]	< 100	< 1000	88	–
CC([C@@H]1OC(=O)C(C)(C)/C=C/c2ccc3ccc(nc3c2)[C@@H](C)NC(=O)[C@@H]2CCCN(N2)C(=O)[C@H](C)NC1=O)C(F)(F)F (stereo partly shown) [Compound 71]	< 100	< 1000	96	–
C[C@@H]1NC(=O)[C@H](C)OC(=O)C(C)(C)/C=C/c2ccc3ccc(nc3c2)[C@@H](C)NC(=O)[C@@H]2CCCN(N2)C1=O [Compound 61]	101 to 1000	1100 to 10000	46	–
CC(C)[C@@H]1OC(=O)C(C)(C)/C=C/c2ccc3ccc(nc3c2)[C@@H](C)N(C)C(=O)[C@@H]2CCCN(N2)C(=O)[C@H](C)NC1=O [Compound 47]	< 100	< 1000	100	–
